In publication PMC9170034 (Proceedings of the National Academy of Sciences of the …, 2022):
“And” between values parts separate entries of the source, which are not always exact repeats. Identical values can stand only once. Like-named read-outs stand apart in the source and are kept apart here.

Tests used:
OXA-10 [1] = target: T1, OXA-10 (Pseudomonas aeruginosa, UniProt P14489); test: IC50/pIC50 determination with fluorescent reporter substrate FC-5 after pre-incubation; format: biochemical
T1 construct: His tag (N); made in house
Method: Kinetic analyses were performed (at least in triplicate) using either BMG LABTECH PHERAstar or CLARIOstar plate readers. Unless stated otherwise, reactions were in 50 mM phosphate buffer, pH 7.5, containing 0.01% (vol/vol) aqueous Triton X-100, and, in the case of OXA-10, 10 mM sodium bicarbonate. […] Nonlinear regression analysis was performed with Prism 5 (GraphPad Software).
IC50s were determined as reported ([35]). […] The apparent inhibitory constant Kiapp and the second-order rate constant kinact/K (or k2/K) were determined using reported methods ([60]). SBLs were reacted with the reporter substrate in the presence of varied inhibitor concentrations. Reactions were initiated by SBL addition and immediately monitored for 60 to 120 s (until they plateaued). […] P=Vst+(V0−VS)(1−e^−kobst)/kobs+P0.

OXA-10 [2] = target: T1, OXA-10; test: Kiapp and kinact/K determination in competition with FC-5; format: biochemical
Method: (§1) Kinetic analyses were performed (at least in triplicate) using either BMG LABTECH PHERAstar or CLARIOstar plate readers. Unless stated otherwise, reactions were in 50 mM phosphate buffer, pH 7.5, containing 0.01% (vol/vol) aqueous Triton X-100, and, in the case of OXA-10, 10 mM sodium bicarbonate. Assays were performed in competition with either the fluorescent reporter substrate FC-5 ([35]), using black-walled microplates (Greiner Bio-One μCLEAR, PS, F-bottom, black), and measuring fluorescence intensity (ʎex = 380 nm and ʎem = 460 nm), or with nitrocefin (NCF), using ultraviolet transparent plates (Greiner Bio-One UV-Star, COC, F-bottom, clear) and measuring absorbance (ʎAbs = 486 nm, using path-length correction). Nonlinear regression analysis was performed with Prism 5 (GraphPad Software).
(§2) IC50s were determined as reported ([35]). TEM-116 (1 nM), AmpCEC (500 pM), or OXA-10 (250 pM) were incubated with varied inhibitor concentrations at room temperature (r.t.) for the indicated time then assayed using 5 µM FC-5. The apparent inhibitory constant Kiapp and the second-order rate constant kinact/K (or k2/K) were determined using reported methods ([60]). SBLs were reacted with the reporter substrate in the presence of varied inhibitor concentrations. Reactions were initiated by SBL addition and immediately monitored for 60 to 120 s (until they plateaued). […]

TEM-116 = TEM-116 (Escherichia coli, UniProt P62593, A182V/V82I); test: SPE-MS study of prolonged reaction of SBL with penam sulfones; conditions: prolonged incubation (8 h) with 100 equiv.
Method: Mass spectra were acquired in the positive ion mode using an integrated autosampler/SPE RapidFire365 system (Agilent Technologies) coupled to an Agilent 6550 Accurate Mass QTOF spectrometer. After the indicated time, 50 μL of the solution was loaded onto a C4 SPE cartridge (Agilent Technologies), then washed with buffer A (100% [vol/vol] water, 0.1% [vol/vol] formic acid), then eluted into the mass spectrometer in buffer B (15% [vol/vol] water, 85% [vol/vol] acetonitrile, 0.1% [vol/vol] formic acid). The cartridge was reequilibrated in buffer A in between samples. Data were analyzed using MassHunter Qualitative Analysis software V.7 (Agilent Technologies) using the maximum entropy deconvolution algorithm.

TEM-26 = system: TEM-26; parameters: method as in earlier work; conditions: periplasmic extracts; nitrocefin; 5 min pre-incubation; ref 2 (Papp-Wallace et al., 2019); cited from earlier work
TEM-30 = system: TEM-30; parameters: method as in earlier work; conditions: periplasmic extracts; nitrocefin; 5 min pre-incubation; ref 2 (Papp-Wallace et al., 2019); cited from earlier work
SHV-1 = conditions: periplasmic extracts; nitrocefin; 5 min pre-incubation; ref 2 (Papp-Wallace et al., 2019); cited from earlier work
SHV (R244S) = system: SHV (R244S); parameters: method as in earlier work; conditions: periplasmic extracts; nitrocefin; 5 min pre-incubation; ref 2 (Papp-Wallace et al., 2019); cited from earlier work
SHV-49 = conditions: periplasmic extracts; nitrocefin; 5 min pre-incubation; ref 2 (Papp-Wallace et al., 2019); cited from earlier work
CTX-M-14 = system: CTX-M-14; parameters: method as in earlier work; conditions: periplasmic extracts; nitrocefin; 5 min pre-incubation; ref 2 (Papp-Wallace et al., 2019); cited from earlier work
CTX-M-15 = system: CTX-M-15; parameters: method as in earlier work; conditions: periplasmic extracts; nitrocefin; 5 min pre-incubation; ref 2 (Papp-Wallace et al., 2019); cited from earlier work
KPC-2 = system: KPC-2; parameters: method as in earlier work; conditions: periplasmic extracts; nitrocefin; 5 min pre-incubation; ref 2 (Papp-Wallace et al., 2019); cited from earlier work
KPC-3 = system: KPC-3; parameters: method as in earlier work; conditions: periplasmic extracts; nitrocefin; 5 min pre-incubation; ref 2 (Papp-Wallace et al., 2019); cited from earlier work
AmpC E. cloacae = system: AmpC E. cloacae; parameters: method as in earlier work; conditions: periplasmic extracts; nitrocefin; 5 min pre-incubation; ref 2 (Papp-Wallace et al., 2019); cited from earlier work
CMY-2 = system: CMY-2; parameters: method as in earlier work; conditions: periplasmic extracts; nitrocefin; 5 min pre-incubation; ref 2 (Papp-Wallace et al., 2019); cited from earlier work
OXA-1 = system: OXA-1; parameters: method as in earlier work; conditions: periplasmic extracts; nitrocefin; 5 min pre-incubation; ref 2 (Papp-Wallace et al., 2019); cited from earlier work
OXA-48 = system: OXA-48; parameters: method as in earlier work; conditions: periplasmic extracts; nitrocefin; 5 min pre-incubation; ref 2 (Papp-Wallace et al., 2019); cited from earlier work
OXA-51 = system: OXA-51; parameters: method as in earlier work; conditions: periplasmic extracts; nitrocefin; 5 min pre-incubation; ref 2 (Papp-Wallace et al., 2019); cited from earlier work
OXA-58 = system: OXA-58; parameters: method as in earlier work; conditions: periplasmic extracts; nitrocefin; 5 min pre-incubation; ref 2 (Papp-Wallace et al., 2019); cited from earlier work
[3] = target: T2, AmpC from Escherichia coli (AmpCEC) (Escherichia coli, UniProt P00811); test: IC50/pIC50 determination with fluorescent reporter substrate FC-5 after pre-incubation; format: biochemical
T2 construct: made in house
Method: as §1
IC50s were determined as reported ([35]). TEM-116 (1 nM), AmpCEC (500 pM), or OXA-10 (250 pM) were incubated with varied inhibitor concentrations at room temperature (r.t.) for the indicated time then assayed using 5 µM FC-5. The apparent inhibitory constant Kiapp and the second-order rate constant kinact/K (or k2/K) were determined using reported methods ([60]). SBLs were reacted with the reporter substrate in the presence of varied inhibitor concentrations. Reactions were initiated by SBL addition and immediately monitored for 60 to 120 s (until they plateaued). For TEM-116 (1 nM) assays were carried out in competition with NCF (50 µM); for AmpCEC (100 nM) and OXA-10 (50 nM) FC-5 (5 µM) was used. […] P=Vst+(V0−VS)(1−e^−kobst)/kobs+P0.

AmpCEC = target: T3, AmpCEC (Escherichia coli, UniProt P00811); test: biochemical
T3 construct: made in house
Method: as §1, §2

OXA-10 [4] = target: T1, OXA-10; test: SPE-MS study of prolonged reaction of SBL with penam sulfones; conditions: 500 equiv.

T1 sequence (P14489 20-266): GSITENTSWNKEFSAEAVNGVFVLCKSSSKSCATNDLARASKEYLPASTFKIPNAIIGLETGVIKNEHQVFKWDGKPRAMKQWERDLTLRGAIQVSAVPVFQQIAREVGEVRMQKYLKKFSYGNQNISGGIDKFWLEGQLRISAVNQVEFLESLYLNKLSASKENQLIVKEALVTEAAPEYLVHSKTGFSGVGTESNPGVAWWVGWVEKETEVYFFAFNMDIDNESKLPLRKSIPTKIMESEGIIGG
T2 sequence (P00811 20-377): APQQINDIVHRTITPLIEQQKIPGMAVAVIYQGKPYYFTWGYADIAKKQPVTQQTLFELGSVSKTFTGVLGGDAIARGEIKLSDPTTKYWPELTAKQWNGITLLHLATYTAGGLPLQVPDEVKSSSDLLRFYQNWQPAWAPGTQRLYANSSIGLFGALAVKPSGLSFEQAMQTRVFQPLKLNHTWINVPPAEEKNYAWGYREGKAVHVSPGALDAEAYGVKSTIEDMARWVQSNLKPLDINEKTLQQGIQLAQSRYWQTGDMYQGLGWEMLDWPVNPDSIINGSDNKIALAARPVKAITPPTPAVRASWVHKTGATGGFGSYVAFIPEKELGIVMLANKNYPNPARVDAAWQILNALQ
T3 sequence (P00811 20-377): as above

C[C@]1(Cn2ccnn2)[C@H](C(=O)O)N2C(=O)C[C@H]2S1(=O)=O [tazobactam]
IC50 (OXA-10 [1]; with 100 mM added NaHCO3, 0 min pre-incubation, Table S1, read-out: pIC50 at pH 7.5, OXA-10 (converted)): 3.89 µM
IC50 (OXA-10 [1]; with 100 mM added NaHCO3, 10 min pre-incubation, Table S1, read-out: pIC50 at pH 7.5, OXA-10 (converted)): 1.91 µM
IC50 (OXA-10 [1]; with 100 mM added NaHCO3, 30 min pre-incubation, Table S1, read-out: pIC50 at pH 7.5, OXA-10 (converted)): 0.851 µM
IC50 (OXA-10 [1]; with 100 mM added NaHCO3, 60 min pre-incubation, Table S1, read-out: pIC50 at pH 7.5, OXA-10 (converted)): 0.562 µM
IC50 (OXA-10 [1]; with 100 mM added NaHCO3, 360 min pre-incubation, Table S1, read-out: pIC50 at pH 7.5, OXA-10 (converted)): 0.204 µM
IC50 (OXA-10 [1]; without added NaHCO3, 0 min pre-incubation, Table S1, read-out: pIC50 at pH 7.5, OXA-10 (converted)): 5.01 µM
IC50 (OXA-10 [1]; without added NaHCO3, 10 min pre-incubation, Table S1, read-out: pIC50 at pH 7.5, OXA-10 (converted)): 1.48 µM
IC50 (OXA-10 [1]; without added NaHCO3, 30 min pre-incubation, Table S1, read-out: pIC50 at pH 7.5, OXA-10 (converted)): 0.891 µM
IC50 (OXA-10 [1]; without added NaHCO3, 60 min pre-incubation, Table S1, read-out: pIC50 at pH 7.5, OXA-10 (converted)): 0.457 µM
IC50 (OXA-10 [1]; without added NaHCO3, 360 min pre-incubation, Table S1, read-out: pIC50 at pH 7.5, OXA-10 (converted)): 0.234 µM
Ki (OXA-10 [2]; OXA-10 (50 nM), FC-5 (5 µM), pH 7.5, 10 mM NaHCO3, read-out: Kiapp, OXA-10): 0.469 ± 0.08 mM
−18-Da species, TEM-116 (TEM-116): not observed
IC50 (TEM-26): 23 ± 1 nM
IC50 (SHV-1): 26 ± 3 nM
IC50 (SHV (R244S)): 390 ± 40 nM
IC50 (SHV-49): 730 ± 80 nM
IC50 (CTX-M-15): 6 ± 1 nM
IC50 (KPC-2): 3.7 ± 0.4 µM
IC50 (KPC-3): 4.4 ± 0.5 µM
IC50 (AmpC E. cloacae): 5.1 ± 0.5 µM
IC50 (CMY-2): 2500 ± 300 nM
IC50 (OXA-1): 8.6 ± 0.9 µM
IC50 (OXA-48): 1500 ± 200 nM
IC50 (OXA-51): > 100 µM
IC50 (OXA-58): 26 ± 3 µM

CC1(C)[C@H](C(=O)O)N2C(=O)C[C@H]2S1(=O)=O [sulbactam]
IC50 ([3]; IC50, AmpC E. coli, 10 min pre-incubation, r.t., pH 7.5, FC-5 (5 μM)): 89 µM and 89.2 µM
IC50 ([3]; pIC50, AmpCEC, pH 7.0, pH 7.0, 0 min pre-incubation, Table S2): 447 µM
IC50 ([3]; pIC50, AmpCEC, pH 7.0, pH 7.0, 10 min pre-incubation, Table S2): 162 µM
IC50 ([3]; pIC50, AmpCEC, pH 7.0, pH 7.0, 30 min pre-incubation, Table S2): 69.2 µM
IC50 ([3]; pIC50, AmpCEC, pH 7.0, pH 7.0, 60 min pre-incubation, Table S2): 45.7 µM
IC50 ([3]; pIC50, AmpCEC, pH 7.0, pH 7.0, 360 min pre-incubation, Table S2): 11.5 µM
IC50 ([3]; pIC50, AmpCEC, pH 7.5, pH 7.5, 0 min pre-incubation, Table S2): 275 µM
IC50 ([3]; pIC50, AmpCEC, pH 7.5, pH 7.5, 30 min pre-incubation, Table S2): 36.3 µM
IC50 ([3]; pIC50, AmpCEC, pH 7.5, pH 7.5, 60 min pre-incubation, Table S2): 20 µM
IC50 ([3]; pIC50, AmpCEC, pH 7.5, pH 7.5, 360 min pre-incubation, Table S2): 4.17 µM
IC50 ([3]; pIC50, AmpCEC, pH 8.0, pH 8.0, 0 min pre-incubation, Table S2): 97.7 µM
IC50 ([3]; pIC50, AmpCEC, pH 8.0, pH 8.0, 10 min pre-incubation, Table S2): 37.2 µM
IC50 ([3]; pIC50, AmpCEC, pH 8.0, pH 8.0, 60 min pre-incubation, Table S2): 9.77 µM
IC50 ([3]; pIC50, AmpCEC, pH 8.0, pH 8.0, 360 min pre-incubation, Table S2): 1.7 µM
IC50 ([3]; pIC50 at pH 7.5, AmpCEC, 0 min pre-incubation, Table S1): 275 µM
IC50 ([3]; pIC50 at pH 7.5, AmpCEC, 30 min pre-incubation, Table S1): 36.3 µM
IC50 ([3]; pIC50 at pH 7.5, AmpCEC, 60 min pre-incubation, Table S1): 20 µM
IC50 ([3]; pIC50 at pH 7.5, AmpCEC, 360 min pre-incubation, Table S1): 4.17 µM
IC50 (OXA-10 [1]; IC50, OXA-10, 10 min pre-incubation, r.t., pH 7.5, FC-5 (5 μM), 100 mM NaHCO3 added): 143 µM and 142 µM
IC50 (OXA-10 [1]; pIC50 at pH 7.5, OXA-10, with 100 mM added NaHCO3, 0 min pre-incubation, Table S1): 218.8 ± 0.598 µM
IC50 (OXA-10 [1]; pIC50 at pH 7.5, OXA-10, with 100 mM added NaHCO3, 30 min pre-incubation, Table S1): 263 µM
IC50 (OXA-10 [1]; pIC50 at pH 7.5, OXA-10, with 100 mM added NaHCO3, 60 min pre-incubation, Table S1): 112 µM
IC50 (OXA-10 [1]; pIC50 at pH 7.5, OXA-10, with 100 mM added NaHCO3, 360 min pre-incubation, Table S1): 204 µM
IC50 (OXA-10 [1]; pIC50 at pH 7.5, OXA-10, without added NaHCO3, 0 min pre-incubation, Table S1): 204 µM
IC50 (OXA-10 [1]; pIC50 at pH 7.5, OXA-10, without added NaHCO3, 10 min pre-incubation, Table S1): 87.1 µM
IC50 (OXA-10 [1]; pIC50 at pH 7.5, OXA-10, without added NaHCO3, 30 min pre-incubation, Table S1): 89.1 µM
IC50 (OXA-10 [1]; pIC50 at pH 7.5, OXA-10, without added NaHCO3, 60 min pre-incubation, Table S1): 75.9 µM
IC50 (OXA-10 [1]; pIC50 at pH 7.5, OXA-10, without added NaHCO3, 360 min pre-incubation, Table S1): 50.1 µM
Ki (AmpCEC): 1.58 ± 0.189 mM
Ki (OXA-10 [2]): 4.92 ± 0.873 mM
−18-Da modification, OXA-10 (OXA-10 [4]): Small amounts
